Patent US8192962B2, “Processes for detecting toxic substances” (Daikin Industries, Ltd., priority 2001, dated 2012)

Test system: Metabolism protein genes
Assay: DNA chip mRNA expression in yeast, metabolism protein genes (Table 7)
Assay type: cell-based, Saccharomyces cerevisiae S288C
Outline: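 Value is the scanned fluorescence intensity ratio of exposed versus chemical-free cells. Log-phase S288C yeast in YPD at 25° C. received one toxic substance for two hours, dosed to slow growth without killing; Cy3/Cy5-labeled cDNA from oligo-dT-purified mRNA was hybridized to a whole-genome chip at 65° C.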

[Cl][Hg][Cl] [(3), HgCl2]
The level of expressed mRNA in the presence of chemical substance/The level of expressed mRNA in the absence of chemical substance (yeast gene YAL012W): 10.4 | The level of expressed mRNA in the presence of chemical substance/The level of expressed mRNA in the absence of chemical substance (yeast gene YAL038W): 3.0 | level of expressed mRNA in the presence/in the absence of chemical substance (yeast gene YBR003W): 1.0 | level of expressed mRNA in the presence/in the absence of chemical substance (yeast gene YBR011C): 2.5 | level of expressed mRNA in the presence/in the absence of chemical substance (yeast gene YBR020W): 1.9 | The level of expressed mRNA in the presence of chemical substance/The level of expressed mRNA in the absence of chemical substance (yeast gene YBR023C): 1.3 | The level of expressed mRNA in the presence of chemical substance/The level of expressed mRNA in the absence of chemical substance (yeast gene YBR029C): 1.8 | The level of expressed mRNA in the presence of chemical substance/The level of expressed mRNA in the absence of chemical substance (yeast gene YBR183W): 2.0 | The level of expressed mRNA in the presence of chemical substance/The level of expressed mRNA in the absence of chemical substance (yeast gene YBR222C): 1.3 | The level of expressed mRNA in the presence of chemical substance/The level of expressed mRNA in the absence of chemical substance (yeast gene YBR256C): 0.6 | The level of expressed mRNA in the presence of chemical substance/The level of expressed mRNA in the absence of chemical substance (yeast gene YCL009C): 2.0 | The level of expressed mRNA in the presence of chemical substance/The level of expressed mRNA in the absence of chemical substance (yeast gene YCL064C): 0.8 | level of expressed mRNA in the presence/in the absence of chemical substance (yeast gene YCR010C): 1.6 | level of expressed mRNA in the presence/in the absence of chemical substance (yeast gene YCR034W): 2.5 | The level of expressed mRNA in the presence of chemical substance/The level of expressed mRNA in the absence of chemical substance (yeast gene YCR048W): 1.0 | The level of expressed mRNA in the presence of chemical substance/The level of expressed mRNA in the absence of chemical substance (yeast gene YCR098C): 1.7 | The level of expressed mRNA in the presence of chemical substance/The level of expressed mRNA in the absence of chemical substance (yeast gene YDR019C): 1.7 | level of expressed mRNA in the presence/in the absence of chemical substance (yeast gene YDR050C): 2.3 | level of expressed mRNA in the presence/in the absence of chemical substance (yeast gene YDR073W): 0.7 | level of expressed mRNA in the presence/in the absence of chemical substance (yeast gene YDR123C): 0.4 | level of expressed mRNA in the presence/in the absence of chemical substance (yeast gene YDR178W): 3.4 | level of expressed mRNA in the presence/in the absence of chemical substance (yeast gene YDR277C): 1.0 | level of expressed mRNA in the presence/in the absence of chemical substance (yeast gene YDR284C): 3.0 | level of expressed mRNA in the presence/in the absence of chemical substance (yeast gene YDR345C): 5.6 | The level of expressed mRNA in the presence of chemical substance/The level of expressed mRNA in the absence of chemical substance (yeast gene YDR380W): 0.8 | level of expressed mRNA in the presence/in the absence of chemical substance (yeast gene YDR400W): 2.2 | level of expressed mRNA in the presence/in the absence of chemical substance (yeast gene YDR408C): 1.4 | level of expressed mRNA in the presence/in the absence of chemical substance (yeast gene YDR483W): 1.3 | The level of expressed mRNA in the presence of chemical substance/The level of expressed mRNA in the absence of chemical substance (yeast gene YDR497C): 0.6 | The level of expressed mRNA in the presence of chemical substance/The level of expressed mRNA in the absence of chemical substance (yeast gene YDR502C): 2.4 | The level of expressed mRNA in the presence of chemical substance/The level of expressed mRNA in the absence of chemical substance (yeast gene YDR516C): 7.8 | level of expressed mRNA in the presence/in the absence of chemical substance (yeast gene YEL063C): 2.4 | level of expressed mRNA in the presence/in the absence of chemical substance (yeast gene YER015W): 1.1 | The level of expressed mRNA in the presence of chemical substance/The level of expressed mRNA in the absence of chemical substance (yeast gene YER026C): 3.3 | The level of expressed mRNA in the presence of chemical substance/The level of expressed mRNA in the absence of chemical substance (yeast gene YER053C): 1.9 | The level of expressed mRNA in the presence of chemical substance/The level of expressed mRNA in the absence of chemical substance (yeast gene YER069W): 3.3 | level of expressed mRNA in the presence/in the absence of chemical substance (yeast gene YER081W): 2.7 | The level of expressed mRNA in the presence of chemical substance/The level of expressed mRNA in the absence of chemical substance (yeast gene YER096W): 2.0 | level of expressed mRNA in the presence/in the absence of chemical substance (yeast gene YER120W): 2.5 | The level of expressed mRNA in the presence of chemical substance/The level of expressed mRNA in the absence of chemical substance (yeast gene YER178W): 3.6 | level of expressed mRNA in the presence/in the absence of chemical substance (yeast gene YFL011W): 3.7 | The level of expressed mRNA in the presence of chemical substance/The level of expressed mRNA in the absence of chemical substance (yeast gene YFL014W): 5.7 | The level of expressed mRNA in the presence of chemical substance/The level of expressed mRNA in the absence of chemical substance (yeast gene YFL030W): 3.1 | The level of expressed mRNA in the presence of chemical substance/The level of expressed mRNA in the absence of chemical substance (yeast gene YFL031W): 2.1 | The level of expressed mRNA in the presence of chemical substance/The level of expressed mRNA in the absence of chemical substance (yeast gene YFL056C): 2.3 | The level of expressed mRNA in the presence of chemical substance/The level of expressed mRNA in the absence of chemical substance (yeast gene YFL057C): 1.5 | The level of expressed mRNA in the presence of chemical substance/The level of expressed mRNA in the absence of chemical substance (yeast gene YFR047C): 2.7 | level of expressed mRNA in the presence/in the absence of chemical substance (yeast gene YGL012W): 3.0 | The level of expressed mRNA in the presence of chemical substance/The level of expressed mRNA in the absence of chemical substance (yeast gene YGL022W): 1.4 | level of expressed mRNA in the presence/in the absence of chemical substance (yeast gene YGL115W): 1.2 | The level of expressed mRNA in the presence of chemical substance/The level of expressed mRNA in the absence of chemical substance (yeast gene YGL126W): 1.4 | level of expressed mRNA in the presence/in the absence of chemical substance (yeast gene YGL205W): 0.7 | The level of expressed mRNA in the presence of chemical substance/The level of expressed mRNA in the absence of chemical substance (yeast gene YGL209W): 1.1 | The level of expressed mRNA in the presence of chemical substance/The level of expressed mRNA in the absence of chemical substance (yeast gene YGL248W): 0.9 | The level of expressed mRNA in the presence of chemical substance/The level of expressed mRNA in the absence of chemical substance (yeast gene YGR037C): 2.2 | The level of expressed mRNA in the presence of chemical substance/The level of expressed mRNA in the absence of chemical substance (yeast gene YGR055W): 12.0 | level of expressed mRNA in the presence/in the absence of chemical substance (yeast gene YGR096W): 1.1 | level of expressed mRNA in the presence/in the absence of chemical substance (yeast gene YGR191W): 1.6 | The level of expressed mRNA in the presence of chemical substance/The level of expressed mRNA in the absence of chemical substance (yeast gene YGR194C): 1.3 | level of expressed mRNA in the presence/in the absence of chemical substance (yeast gene YGR204W): 2.7 | The level of expressed mRNA in the presence of chemical substance/The level of expressed mRNA in the absence of chemical substance (yeast gene YGR256W): 2.3 | The level of expressed mRNA in the presence of chemical substance/The level of expressed mRNA in the absence of chemical substance (yeast gene YGR282C): 4.6 | level of expressed mRNA in the presence/in the absence of chemical substance (yeast gene YGR288W): 1.0 | level of expressed mRNA in the presence/in the absence of chemical substance (yeast gene YHR025W): 2.4 | The level of expressed mRNA in the presence of chemical substance/The level of expressed mRNA in the absence of chemical substance (yeast gene YHR111W): 0.8 | level of expressed mRNA in the presence/in the absence of chemical substance (yeast gene YHR123W): 1.8 | The level of expressed mRNA in the presence of chemical substance/The level of expressed mRNA in the absence of chemical substance (yeast gene YHR137W): 2.4 | The level of expressed mRNA in the presence of chemical substance/The level of expressed mRNA in the absence of chemical substance (yeast gene YHR174W): 3.3 | The level of expressed mRNA in the presence of chemical substance/The level of expressed mRNA in the absence of chemical substance (yeast gene YHR176W): 1.1 | level of expressed mRNA in the presence/in the absence of chemical substance (yeast gene YHR210C): 0.6 | level of expressed mRNA in the presence/in the absence of chemical substance (yeast gene YIL006W): 1.4 | The level of expressed mRNA in the presence of chemical substance/The level of expressed mRNA in the absence of chemical substance (yeast gene YIL045W): 1.9 | The level of expressed mRNA in the presence of chemical substance/The level of expressed mRNA in the absence of chemical substance (yeast gene YIL107C): 1.1 | The level of expressed mRNA in the presence of chemical substance/The level of expressed mRNA in the absence of chemical substance (yeast gene YIL154C): 1.9 | The level of expressed mRNA in the presence of chemical substance/The level of expressed mRNA in the absence of chemical substance (yeast gene YIL155C): 1.4 | The level of expressed mRNA in the presence of chemical substance/The level of expressed mRNA in the absence of chemical substance (yeast gene YIR034C): 2.5 | The level of expressed mRNA in the presence of chemical substance/The level of expressed mRNA in the absence of chemical substance (yeast gene YIR036C): 2.6 | The level of expressed mRNA in the presence of chemical substance/The level of expressed mRNA in the absence of chemical substance (yeast gene YJL031C): 0.5 | The level of expressed mRNA in the presence of chemical substance/The level of expressed mRNA in the absence of chemical substance (yeast gene YJL068C): 3.4 | The level of expressed mRNA in the presence of chemical substance/The level of expressed mRNA in the absence of chemical substance (yeast gene YJL088W): 2.2 | The level of expressed mRNA in the presence of chemical substance/The level of expressed mRNA in the absence of chemical substance (yeast gene YJL099W): 0.3 | level of expressed mRNA in the presence/in the absence of chemical substance (yeast gene YJL121C): 1.9 | level of expressed mRNA in the presence/in the absence of chemical substance (yeast gene YJL167W): 1.4 | The level of expressed mRNA in the presence of chemical substance/The level of expressed mRNA in the absence of chemical substance (yeast gene YJL172W): 1.8 | level of expressed mRNA in the presence/in the absence of chemical substance (yeast gene YJL216C): 2.2 | The level of expressed mRNA in the presence of chemical substance/The level of expressed mRNA in the absence of chemical substance (yeast gene YJL219W): 3.1 | level of expressed mRNA in the presence/in the absence of chemical substance (yeast gene YJR077C): 2.0 | The level of expressed mRNA in the presence of chemical substance/The level of expressed mRNA in the absence of chemical substance (yeast gene YJR137C): 4.6 | level of expressed mRNA in the presence/in the absence of chemical substance (yeast gene YJR143C): 2.1 | The level of expressed mRNA in the presence of chemical substance/The level of expressed mRNA in the absence of chemical substance (yeast gene YJR148W): 2.0
